Measured values from US20120309728A1, “NEW STEROID INHIBITORS OF PGP FOR USE FOR INHIBITING MULTIDRUG RESISTANCE” (priority 2009, published 2012).

What was measured:
H295R cells xenograft = assay: In vivo efficiency in SCID mice xenografted with H295R cells
Description: (§1) FIGS. 7 and 8 represent the tumour volume of mice treated with vehicle ([…]), doxorubicin (∘), compound (33) alone (▾), and compound (33) with doxorubicin (Δ). The tumor volume is indicated as a function of days. FIG. 7 concerns mice xenografted with H295R cells and FIG. 8 concerns mice xenografted with R7 cells (the arrow indicates the beginning of treatment of mice).
(§2) For each xenograft, four groups of five mice developing a tumour in both flanks were employed. Group 1 received vehicle alone, group 2 received DOXO (1.5 mg/kg/mouse+vehicle), group 3 received (33) derivative (10 mg/kg/mouse solubilised with vehicle) and group 4 received DOXO+derivative.

resistant R7 cells = assay: Reversion of chemoresistance to doxorubicin by steroid modulators (modulation of IC50 for doxorubicin); assay type: cell-based, human; conditions: in vitro, cyclosporine A in the same conditions
Protocol: FIGS. 3 and 4 represent the effects of compounds of the invention (steroid modulators) on chemosensitization of resistant R7 cells to doxorubicin (DOXO), evaluated by [^3H]thymidine incorporation. Resistant R7 cells were incubated for 24 hours with increasing concentrations of doxorubicinin the absence (∘) or in the presence of said steroid modulators. As a control, the sensitive K562 cells were incubated with the same concentrations of doxorubicin ([…]).
Sensitive parental K562 cells were also treated with the same increasing concentrations of DOXO (from 10^−8 to 10^−4 M) in the absence of steroids, as a control.

H295R cells = assay: Cytotoxicity assay using [^3H]thymidine incorporation in surviving cells, with doxorubicin plus steroid modulator; assay type: cell-based, human; conditions: comment on Table 2, both value columns
Protocol: Doxorubicine (DOXO) at 10^−6 M was added shortly thereafter to each well. […] Finally the precipitate was solubilized by addition of 300 μL of a solution of sodium deoxycholate (4% in NaOH 0.5 M) (O. Joly-Pharaboz et al., J Steroid Biochem. Mol. Biol. 73 (2000) 237-249). Radioactivity was measured (Tri-Carb 1900 CA, Packard) after addition of liquid scintillation cocktail (Perkin Elmer, Courtaboeuf, France). […] At least three different experiments were performed for each cell type.

R7 cells xenograft = assay: In vivo efficiency in SCID mice xenografted with R7 cells
Description: as §1, §2

K562/R7 cells = assay: Cytotoxicity assay using MTT reagent, with doxorubicin plus steroid modulator; assay type: cell-based, human; conditions: doxorubicin 10^−6M + steroid modulator 10^−6M, 72 h
Protocol: Doxorubicin at 10^−6 M was then added to each well. After incubation for 72 h, 20 μL of MTT reagent (5 mg/mL in PBS buffer) were added to each well and the plate was further incubated for 4 h at 37° C., allowing viable cells to change the yellow MTT into dark-blue formazan crystals. Supernatants were carefully discarded and 100 μL of isopropanol containing 10% HCL 1M were added to dissolve the formazan crystals. Absorbance in each well was determined at 570 nm using a microplate reader (MultisKan EX, Thermo Electron). […] At least three different experiments were performed. Results were expressed as the percentage of surviving cells in each well compared to untreated cells.

[1] = DOXO 1.5 mg/kg/mouse + derivative 10 mg/kg/mouse (group 4) versus groups 1, 2 and 3
[2] = DOXO + derivative (group 4), 40 days of treatment

Structure (SMILES): CC(=O)C1CCC2C3C([C@H](OC4CCCCO4)C[C@]12C)[C@@]1(C)CCC(=O)C[C@H]1C[C@H]3OC(=O)c1ccccc1 (stereo partly drawn) [Compound 33, 7α-Benzoyloxy-11α-O-[2′(R)]tetrahydropyranyl-oxy(5β)pregnane-3,20-dione]
- development of tumour (H295R cells xenograft; [1]): delay in the development of tumour
- survival time (H295R cells xenograft; DOXO + derivative (group 4)): longer survival time
- tumour volume (H295R cells xenograft; [2]): remains low and stable
- potency relative to cyclosporine A in decreasing IC50 for doxorubicin (resistant R7 cells): 10 fold
- activity to increase the cytotoxicity of doxorubicin (in words) (H295R cells): activity similar to cyclosporine A
- development of tumour (R7 cells xenograft; [1]): delay in the development of tumour
- survival time (R7 cells xenograft; DOXO + derivative (group 4)): longer survival time
- tumour volume (R7 cells xenograft; [2]): remains low and stable
- Surviving cells R7 cells (% untreated cells) (K562/R7 cells): 1.5 ± 0.9 % untreated cells
